Results as given in patent US7317034B2, “Substituted C-furan-2-yl-methylamine and C-thiophen-2-yl-methylamine compounds” (Gruenenthal GmbH, priority 2001, dated 2008).

Test system: binding site 2 of the sodium channel (BTX binding site)
Test: Binding to the sodium channel, binding site 2 (BTX binding), [3H]-batrachotoxinin A20 α-benzoate displacement
Conditions: rat cerebrocortex synaptosomes; for BTX binding (10 μM): 10 μM test compound, ligand [3H]-batrachotoxinin A20 α-benzoate 10 nM, 120 min at 25° C.

Compound | BTX binding (10 μM) [%] | Kd (radioligand [3H]-batrachotoxinin A20 α-benzoate, N=2, mean±SEM, read-out: KD value for that binding site) [nM]
5-[1-(2-Chloro-phenylamino)-2-oxo-2-phenyl-ethyl]-2-methyl-furan-3-carboxylic acid ethyl ester | 40 | –
COC(=O)c1cc(C(Nc2ccc(Cl)cc2F)C(=O)c2ccccc2)oc1C (centres unmarked) [C, 5-[1-(4-Chloro-2-fluoro-phenylamino)-2-oxo-2-phenyl-ethyl]-2-methyl-furan-3-carboxylic acid methyl ester] | 57 | –
CCOC(=O)c1cc(C(Nc2ccc(Cl)cc2C)C(=O)c2ccccc2)oc1C (centres unmarked) [D, 5-[1-(4-Chloro-2-methyl-phenylamino)-2-oxo-2-phenyl-ethyl]-2-methyl-furan-3-carboxylic acid ethyl ester] | 37 | –
COC(=O)c1cc(C(Nc2ccc(Cl)cc2C)C(=O)c2ccccc2)oc1C (centres unmarked) [Example B, 5-[1-(4-Chloro-2-methyl-phenylamino)-2-oxo-2-phenyl-ethyl]-2-methyl-furan-3-carboxylic acid methyl ester] | 55 | –
[3H]-batrachotoxinin A20 α-benzoate [reference compound] | – | 24.6 ± 1.56
